pIC50: −log10 of the molar value. Where two headings read alike, the source gives them in different places. A value given as a limit tells only on which side of the number the result lay.

Assay type in all cases: cell-based
Data set [1] has as its target T1, AR-TIF2 PPI (Homo sapiens, UniProt P10275).
T1 construct: expressed in transfected cells; host or cells: U-2 OS osteosarcoma cells, co-infected with recombinant adenoviruses
T1 sequence (P10275 663-920 limits assumed): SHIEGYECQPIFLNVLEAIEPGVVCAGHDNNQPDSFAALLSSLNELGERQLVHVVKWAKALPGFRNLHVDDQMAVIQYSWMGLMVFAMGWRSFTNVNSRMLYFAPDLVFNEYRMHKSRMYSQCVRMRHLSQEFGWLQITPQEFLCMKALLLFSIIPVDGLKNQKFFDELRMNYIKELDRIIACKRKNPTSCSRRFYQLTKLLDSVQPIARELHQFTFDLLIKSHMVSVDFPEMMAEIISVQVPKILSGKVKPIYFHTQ
Put plainly: AR-TIF2 PPI biosensor (PPIB) HCS assay, disruption of pre-formed AR-TIF2 PPI complexes. The following applies: U-2 OS cells, 25 nM DHT 90 min prior to compounds for 3 h. How it is done: Daughter plates containing 2 μL of the serially diluted compounds in DMSO were prepared and replicated from 384-well serial dilution master plates using a Janus MDT platform outfitted with a 384-well transfer head. Aluminum adhesive plate seals were applied, and plates were stored at −20 °C. For bioassay testing, daughter plates were withdrawn from −20 °C storage, thawed to ambient temperature, and centrifuged for 1 min at 100 × g, and plate seals were removed before 38 μL of serum-free media (SFM) was transferred into wells using a Matrix pipettor (ThermoFisher, Waltham, MA), to generate an intermediate stock concentration of validation compounds ranging from 0.977 to 500 μM (5.0% DMSO). Diluted compounds were mixed by repeated aspiration and dispensation using a 384-well P30 dispensing head on the Janus MDT platform and then, 5 μL of diluted compounds was transferred to assay plate wells to provide a final concentration range from 0.0977 to 50 μM (0.5% DMSO).
(§1) The AR-TIF2 PPIB HCS assay was performed in U-2 OS osteosarcoma cells as described previously. Briefly, U-2 OS cells were coinfected with recombinant adenovirus biosensor expression constructs and seeded at 2500 cells per well in 384-well collagen-coated microplates (Greiner BioOne #781956) and plates were incubated overnight at 37°C in 5% CO2 and 95% humidity. […] After the appropriate time, assay plates were fixed by transfer of 50 μL of pre-warmed (37°C) 7.4% formaldehyde and 2 μg/mL Hoechst 33342 in PBS and incubation at room temperature for 30 min. Liquid was aspirated, plates were washed twice with 85 μL PBS, leaving the final wash in the plate. Plates were sealed with adhesive aluminum plate seals, and fluorescent images of three fields of view were acquired in the DAPI (Hoechst stained nuclei), FITC (TIF2-GFP) and Texas Red (AR-RFP) channels on an ImageXpress Micro (IXM) automated HCS platform (Molecular Devices LLC, Sunnyvale, CA) using a 10X Plan Fluor 0.3 NA objective. Images were analyzed using the Translocation Enhanced (TE) image analysis module of the MetaXpress software as described previously.
(§2) In 384-well assays, DMSO minimum (n = 32) and maximum (n = 32) plate control wells were utilized to calculate signal-to-background ratios (S:B) and Z’-factor coefficient assay performance quality control statistics, and to normalize the signals of compound treated wells and to represent 0% and 100% respectively. For the 96-well AR-LBD H^3-DHT radioligand binding assay, eight minimum and maximum plate control wells were utilized to normalize the data. For the PC cell line growth inhibition assays we used the DMSO control data from the T0 and T72 assay plates to assess the dynamic range of the T0 to T72 cell growth, and to calculate S:B ratios and Z’-factor coefficient statistics for the assay signal window (T0 to T72). To normalize the 72 h compound exposure PC growth inhibition data, the signals from the compound treated wells were processed and expressed as% of the T72 DMSO plate controls. IC50 and GI50 values for each of the bioassays were calculated using Graph-Pad Prism 9 software to plot and fit data to curves using the Sigmoidal dose response variable slope equation Y = Bottom + [Top-Bottom]/ [1 + 10^^(LogEC50-X)*HillSlope].

Data set [2] deals with PC-3 cells. Put plainly: Prostate cancer cell line growth inhibition assay, PC-3. The following applies: read-out: PC3 GI50 (AR−). How it is done: (§3) The PC-3, DU-145, LNCaP, C4–2, and 22Rv1 PC cell line growth inhibition assays have been described previously. On day 1, each PC cell line was harvested, counted, and seeded into two 384-well assay plates, a time zero (T0) and a time 72 h (T72) plate. PC cell lines were all seeded at 1000 cells per well in 45 μL of tissue culture media in uncoated white clear bottom 384-well assay plates (VWR, # 82050–076) using a Matrix electronic multichannel pipette (Thermo Fisher Scientific, Waltham, MA) and cultured overnight at 37 °C, 5% CO2, and 95% humidity. On day 2, 25 μL of the Cell Titer Glo (CTG) (Promega Corporation, Madison, WI) detection reagent was dispensed into the wells of the T0 assay plate using a Matrix electronic multichannel pipette, and the RLUs were captured on the SpectraMax M5e (Molecular Devices LLC, Sunnyvale, CA) microtiter plate reader. Also on day 2, 5 μL of compounds were transferred into the test wells of the T72 384-well assay plates which were returned to the incubator for 72 h. Control wells received DMSO alone. On day 5, 25 μL of the CTG detection reagent was dispensed into the wells of the T72 assay plate using a Matrix electronic multichannel pipette, and the RLU’s were captured on the SpectraMax M5e microtiter plate reader platform.
as §2

The subject of data set [3] is U-2 OS cells. The data set is described as follows: AR-TIF2 PPIB cell loss (Hoechst stained nuclei). The following applies: 4.5 h compound exposure. The procedure: as §1
In data set [4] the test system is 22Rv1 cells. The data set is described as follows: Prostate cancer cell line growth inhibition assay, 22Rv1. The following applies: read-out: 22Rv1 GI50 (AR+). How it is done:
as §3, §2

Turning to `Cc1ccccc1-c1cc(O)c2c(c1)CN(c1nc(C(N)=O)cs1)CCO2` [S1–1], the negative-log IC50 (pIC50) – broadly, the negative decadic logarithm of the IC50, by convention in mol/L – in data set [1] was 4.58. The concentration for 50% growth inhibition (GI50) (as a rule, the concentration that inhibits growth by half) in data set [2] (72 h) came to 70.3 µM; in data set [2] (Homo sapiens, PC-3, 72 h), 70 µM; in data set [4] (Homo sapiens, 22Rv1, 72 h), 55.5 µM. Also, the “AR-TIF2 PPIB Cell Loss” value in data set [3] is above 100 µM.
For `Cc1ccccc1-c1cc(O)c2c(c1)CN(c1nccs1)CCO2` [S1–3], the pIC50 in data set [1] and in data set [1] (listed as S1-3) was 4.20 each time. The figures for the GI50 in data set [2] (72 h) and in data set [4] (72 h) were above 100 µM and 75.2 µM, respectively. Moreover, the “AR-TIF2 PPIB Cell Loss” value in data set [3] is above 100 µM.
Take `Cc1nsc(NC(=O)N2CCC(Sc3ccccc3C)CC2)n1` [S2–6]: the pIC50 in data set [1] is 5.24. For the same compound, the GI50 in data set [2] (Homo sapiens, PC-3, 72 h) was above 100 µM; in data set [4] (Homo sapiens, 22Rv1, 72 h) it was 17.6 µM. In addition, the “AR-TIF2 PPIB Cell Loss” value in data set [3] was above 100 µM.
In the case of `Cc1c(-c2ccccc2F)[nH]c2ccc(CNC(=O)CCc3cn[nH]c3)cc12` [S3–11], the pIC50 in data set [1] is 4.54. The 50% growth inhibitory concentration (GI50) in data set [2] (Homo sapiens, PC-3, 72 h) amounted to 32.6 µM; in data set [4] (Homo sapiens, 22Rv1, 72 h), 15 µM. The “AR-TIF2 PPIB Cell Loss” value in data set [3] is above 100 µM.
The compound `Cc1c(-c2ccccc2F)[nH]c2ccc(CNC(=O)CCc3cnccn3)cc12` [S3–12] had a negative logarithm of the IC50 (pIC50) in data set [1] of 4.57. Moreover, the concentration for 50% growth inhibition (GI50) in data set [2] (Homo sapiens, PC-3, 72 h) was found to be 18.4 µM; in data set [4] (Homo sapiens, 22Rv1, 72 h) it was 20.5 µM. The “AR-TIF2 PPIB Cell Loss” value in data set [3] was above 100 µM.
Consider `CC(=O)NCCC(=O)NCc1ccc2[nH]c(-c3ccccc3F)c(C)c2c1` [S3–13], for which the negative logarithm of the IC50 (pIC50) in data set [1] is 4.38. Moreover, the GI50 in data set [2] (Homo sapiens, PC-3, 72 h) was above 100 µM; in data set [4] (Homo sapiens, 22Rv1, 72 h), above 100 µM. Besides, the “AR-TIF2 PPIB Cell Loss” value in data set [3] was above 100 µM.
`Cc1c(-c2ccccc2F)[nH]c2ccc(CNC(=O)c3ccc(CO)o3)cc12` [S3–14] gave a pIC50 in data set [1] of 4.74. Moreover, the concentration for 50% growth inhibition (GI50) is above 100 µM in data set [2] (Homo sapiens, PC-3, 72 h) and 102 µM in data set [4] (Homo sapiens, 22Rv1, 72 h). Moreover, the “AR-TIF2 PPIB Cell Loss” value in data set [3] is above 100 µM.
In turn, `Cc1c(-c2ccc(F)cc2)[nH]c2ccc(CNC(=O)c3ccc(CO)o3)cc12` [S3–15] had a negative-log IC50 (pIC50) in data set [1] of 4.58. The concentration for 50% growth inhibition (GI50) in data set [2] (Homo sapiens, PC-3, 72 h) is 23.7 µM; in data set [4] (Homo sapiens, 22Rv1, 72 h), 17.4 µM. Also, the “AR-TIF2 PPIB Cell Loss” value in data set [3] is above 100 µM.
